Source: US8586593B2, “Insecticidal compounds” (Syngenta Crop Protection, Inc., priority 2009, dated 2013)

Assays:
Assay type in all cases: in vivo
Diabrotica balteata = Diabrotica balteata (corn root worm) larval test on artificial diet; settings: 120 h, 200 ppm (concentration in well 18 ppm), L2 larvae, larval mortality and growth regulation after 5 days
Method: A 24-well microtiter plate (MTP) with artificial diet was treated with test solutions at an application rate of 200 ppm (concentration in well 18 ppm) by pipetting. After drying, the MTP's were infested with larvae (L2) (6-10 per well). After an incubation period of 5 days, samples were checked for larval mortality, and growth regulation.

Spodoptera littoralis = Spodoptera littoralis (Egyptian cotton leafworm) leaf disc spray test; settings: foliar, 72 h, 200 ppm sprayed on cotton leaf discs, 5 L1 larvae, mortality, feeding behavior and growth regulation 3 days after treatment
Source text: Spodoptera littoralis (Egyptian Cotton Leafworm)
Cotton leaf discs were placed on agar in a 24-well microtiter plate and sprayed with test solutions at an application rate of 200 ppm. After drying, the leaf discs were infested with 5 L1 larvae. The samples were checked for mortality, feeding behavior, and growth regulation 3 days after treatment (DAT).

Heliothis virescens = Heliothis virescens (tobacco budworm) egg test on artificial diet; settings: 96 h, 200 ppm (concentration in well 18 ppm), eggs 0-24 h old on artificial diet, egg mortality, larval mortality and growth regulation after 4 days
Method: Eggs (0-24 h old) were placed in 24-well microtiter plate on artificial diet and treated with test solutions at an application rate of 200 ppm (concentration in well 18 ppm) by pipetting. After an incubation period of 4 days, samples were checked for egg mortality, larval mortality, and growth regulation.

Plutella xylostella = Plutella xylostella (diamond back moth) larval test on artificial diet; settings: 144 h, 200 ppm (concentration in well 18 ppm), L2 larvae, larval mortality and growth regulation after 6 days
Method: 24-well microtiter plate (MTP) with artificial diet was treated with test solutions at an application rate of 200 ppm (concentration in well 18 ppm) by pipetting. After drying, the MTP's were infested with L2 larvae (7-12 per well). After an incubation period of 6 days, samples were checked for larval mortality and growth regulation.

Measured: pest or weed control at 200 ppm

O=C(Nc1ccc(C(F)(F)F)cc1C1CCN(Cc2ccc(-c3ncc(F)cn3)cc2)CC1)c1ccnc(Cl)c1 [Compound A2, 2-chloro-N-(2-{1-[4-(5-fluoro-pyrimidin-2-yl)-benzyl]-piperidin-4-yl}-4-trifluoromethyl-phenyl)-isonicotinamide]
≥ 80%: all assays above

O=C(Nc1ccc(F)cc1C1CCN(Cc2ccc(-c3ncc(Cl)cn3)cc2)CC1)c1ccnc(Cl)c1 [Compound A10, 2-chloro-N-(2-{1-[4-(5-chloro-pyrimidin-2-yl)-benzyl]-piperidin-4-yl}-4-fluoro-phenyl)-isonicotinamide]
≥ 80%: all assays above

O=C(Nc1cc(OC(F)(F)F)ccc1C1CCN(Cc2ccc(-c3ncc(Cl)cn3)cc2)CC1)c1ccnc(Cl)c1 [Compound A12, 2-chloro-N-(2-{1-[4-(5-chloro-pyrimidin-2-yl)-benzyl]-piperidin-4-yl}-5-trifluoromethoxy-phenyl)-isonicotinamide]
≥ 80%: all assays above

O=C(Nc1ccc(C(F)(F)F)nc1C1CCN(Cc2ccc(-c3ncc(Cl)cn3)cc2)CC1)c1ccnc(Cl)c1 [Compound B1, 2-chloro-N-{1′-[4-(5-chloro-pyrimidin-2-yl)-benzyl]-6-trifluoromethyl-1′,2′,3′,4′,5′,6′-hexahydro-[2,4′]bipyridinyl-3-yl}-isonicotinamide]
≥ 80%: all assays above

O=C(Nc1ccc(C(F)(F)F)nc1C1CCN(Cc2ccc(-c3ncc(F)cn3)cc2)CC1)c1ccnc(Cl)c1 [Compound B2, 2-chloro-N-{1′-[4-(5-fluoro-pyrimidin-2-yl)-benzyl]-6-trifluoromethyl-1′,2′,3′,4′,5′,6′-hexahydro-[2,4′]bipyridinyl-3-yl}-isonicotinamide]
≥ 80%: all assays above

O=C(Nc1ccc(OC(F)F)nc1C1CCN(Cc2ccc(-c3ncc(Cl)cn3)cc2)CC1)c1ccnc(Cl)c1 [Compound B6, 2-chloro-N-{1′-[4-(5-chloro-pyrimidin-2-yl)-benzyl]-6-difluoromethoxy-1′,2′,3′,4′,5′,6′-hexahydro-[2,4′]bipyridinyl-3-yl}-isonicotinamide]
≥ 80%: all assays above

O=C(Nc1c(F)cc(C(F)(F)F)nc1C1CCN(Cc2ccc(-c3ncc(Cl)cn3)cc2)CC1)c1ccnc(Cl)c1 [Compound B7, 2-chloro-N-{1′-[4-(5-chloro-pyrimidin-2-yl)-benzyl]-4-fluoro-6-trifluoromethyl-1′,2′,3′,4′,5′,6′-hexahydro-[2,4′]bipyridinyl-3-yl}-isonicotinamide]
≥ 80%: all assays above

O=C(Nc1ccc(C(F)(F)F)cc1C1CC[N+]([O-])(Cc2ccc(-c3ncc(Cl)cn3)cc2)CC1)c1ccnc(Cl)c1 (stereo not drawn) [Compound C1, 2-chloro-N-(2-{1-[4-(5-chloro-pyrimidin-2-yl)-benzyl]-1-oxy-piperidin-4-yl}-4-trifluoromethyl-phenyl)-isonicotinamide]
≥ 80%: all assays above

O=C(Nc1ccc(C(F)(F)F)cc1C1CCN(Cc2ccc(-c3ncc(Cl)cn3)cc2)CC1)c1ccnc(Cl)c1 [Compound E1, 2-chloro-N-(2-{1-[4-(5-chloro-pyrimidin-2-yl)-benzyl]-piperidin-4-yl}-4-trifluoromethyl-phenyl)-isonicotinamide acetate]
≥ 80%: Plutella xylostella

O=C(Nc1ccc(C(F)(F)F)cc1C1CCN(Cc2ccc(-c3ncc(Cl)cn3)cc2)CC1)c1ccnc(Cl)c1 [Compound E8]
≥ 80%: Diabrotica balteata | Spodoptera littoralis | Heliothis virescens
